Test results: ChEMBL document CHEMBL1681642, “Synthesis and biological activity of novel MIF antagonists” (Bioorg Med Chem Lett, 2011)

System: PBMC
Assay: Antiinflammatory activity in human PBMC assessed as inhibition of MIF-induced IL-6 production at 100 uM after 21 hrs by ELISA
Type: functional
Details: not given

| Compound | inhibition at 100 µM [%] |
| --- | --- |
| CC1(C(=O)O)CC(c2ccoc2)=NO1 (stereo not given) | 7 |
| c1cc(C2=NOC(C3CCCCC3)C2)co1 (stereo not given) | 0 |
| OCCC1CC(c2ccoc2)=NO1 (stereo not given) | 7 |
| Fc1ccc(C2CC(c3cn(-c4cccc(C(F)(F)F)c4)c4ccccc34)=NO2)cc1 (stereo not given) | 4 |
| Fc1ccc(C2CC(c3ccoc3)=NO2)cc1 (stereo not given) | 15 |
| COC(=O)CC1(C(=O)OC)CC(c2cn(-c3cccc(C(F)(F)F)c3)c3ccccc23)=NO1 (stereo not given) | 4 |

Biological target: T1, Macrophage migration inhibitory factor (Homo sapiens) (UniProt P14174)
T1 sequence (whole entry): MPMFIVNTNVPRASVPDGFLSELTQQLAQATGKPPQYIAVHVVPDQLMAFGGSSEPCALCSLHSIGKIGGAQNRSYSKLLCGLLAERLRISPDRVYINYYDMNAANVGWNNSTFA
Assay: Inhibition of human purified MIF tautomerase activity at 10 uM after 30 mins
Details: not given

| Compound | inhibition [%] |
| --- | --- |
| CC1(C(=O)O)CC(c2ccoc2)=NO1 (stereo not given) | 18 |
| c1cc(C2=NOC(C3CCCCC3)C2)co1 (stereo not given) | 23 |
| OCCC1CC(c2ccoc2)=NO1 (stereo not given) | 3 |
| Fc1ccc(C2CC(c3cn(-c4cccc(C(F)(F)F)c4)c4ccccc34)=NO2)cc1 (stereo not given) | 55 |
| Fc1ccc(C2CC(c3ccoc3)=NO2)cc1 (stereo not given) | 0 |
| COC(=O)CC1(C(=O)OC)CC(c2cn(-c3cccc(C(F)(F)F)c3)c3ccccc23)=NO1 (stereo not given) | 6 |

System: PBMC
Assay: Antiinflammatory activity in human PBMC assessed as inhibition of MIF-induced IL-6 production at 30 uM after 21 hrs by ELISA
Type: functional
Details: not given

| Compound | inhibition at 30 µM [%] |
| --- | --- |
| CC1(C(=O)O)CC(c2ccoc2)=NO1 (stereo not given) | 14 |
| c1cc(C2=NOC(C3CCCCC3)C2)co1 (stereo not given) | 0 |
| OCCC1CC(c2ccoc2)=NO1 (stereo not given) | 18 |
| Fc1ccc(C2CC(c3cn(-c4cccc(C(F)(F)F)c4)c4ccccc34)=NO2)cc1 (stereo not given) | 0 |
| Fc1ccc(C2CC(c3ccoc3)=NO2)cc1 (stereo not given) | 0 |
| COC(=O)CC1(C(=O)OC)CC(c2cn(-c3cccc(C(F)(F)F)c3)c3ccccc23)=NO1 (stereo not given) | 0 |

Biological target: T1, Macrophage migration inhibitory factor (Homo sapiens)
Assay: Inhibition of human purified MIF tautomerase activity at 100 uM after 30 mins
Details: not given

| Compound | inhibition [%] |
| --- | --- |
| CC1(C(=O)O)CC(c2ccoc2)=NO1 (stereo not given) | 29 |
| c1cc(C2=NOC(C3CCCCC3)C2)co1 (stereo not given) | 54 |
| OCCC1CC(c2ccoc2)=NO1 (stereo not given) | 23 |
| Fc1ccc(C2CC(c3cn(-c4cccc(C(F)(F)F)c4)c4ccccc34)=NO2)cc1 (stereo not given) | 100 |
| Fc1ccc(C2CC(c3ccoc3)=NO2)cc1 (stereo not given) | 41 |
| COC(=O)CC1(C(=O)OC)CC(c2cn(-c3cccc(C(F)(F)F)c3)c3ccccc23)=NO1 (stereo not given) | 76 |

System: PBMC
Assay: Antiinflammatory activity in human PBMC assessed as inhibition of MIF-induced TNFalpha production at 100 uM after 21 hrs by ELISA
Type: functional
Details: not given

| Compound | inhibition at 100 µM [%] |
| --- | --- |
| CC1(C(=O)O)CC(c2ccoc2)=NO1 (stereo not given) | 32 |
| c1cc(C2=NOC(C3CCCCC3)C2)co1 (stereo not given) | 0 |
| OCCC1CC(c2ccoc2)=NO1 (stereo not given) | 11 |
| Fc1ccc(C2CC(c3cn(-c4cccc(C(F)(F)F)c4)c4ccccc34)=NO2)cc1 (stereo not given) | 0 |
| Fc1ccc(C2CC(c3ccoc3)=NO2)cc1 (stereo not given) | 0 |
| COC(=O)CC1(C(=O)OC)CC(c2cn(-c3cccc(C(F)(F)F)c3)c3ccccc23)=NO1 (stereo not given) | 0 |

System: not listed separately
Assay: Cytotoxicity against human PBMC assessed as cell viability measured during cytokines production assay at 100 uM after 21 hrs by MTS assay
Type: cell-based
Details: PBMC (peripheral blood mononuclear cells)

| Compound | cytotoxicity at 21 h, 100 µM [%] |
| --- | --- |
| CC1(C(=O)O)CC(c2ccoc2)=NO1 (stereo not given) | 10 |
| c1cc(C2=NOC(C3CCCCC3)C2)co1 (stereo not given) | 1 |
| OCCC1CC(c2ccoc2)=NO1 (stereo not given) | 10 |
| Fc1ccc(C2CC(c3cn(-c4cccc(C(F)(F)F)c4)c4ccccc34)=NO2)cc1 (stereo not given) | 1 |
| Fc1ccc(C2CC(c3ccoc3)=NO2)cc1 (stereo not given) | 4 |
| COC(=O)CC1(C(=O)OC)CC(c2cn(-c3cccc(C(F)(F)F)c3)c3ccccc23)=NO1 (stereo not given) | 2 |

Biological target: T1, Macrophage migration inhibitory factor (Homo sapiens)
Assay: Inhibition of MIF in human PBMC assessed as MIF secretion at 100 uM after 5 hrs by ELISA
Details: not given

| Compound | inhibition [%] |
| --- | --- |
| CC1(C(=O)O)CC(c2ccoc2)=NO1 (stereo not given) | 21 |
| c1cc(C2=NOC(C3CCCCC3)C2)co1 (stereo not given) | 35 |
| OCCC1CC(c2ccoc2)=NO1 (stereo not given) | 58 |
| Fc1ccc(C2CC(c3cn(-c4cccc(C(F)(F)F)c4)c4ccccc34)=NO2)cc1 (stereo not given) | 0 |
| Fc1ccc(C2CC(c3ccoc3)=NO2)cc1 (stereo not given) | 51 |
| COC(=O)CC1(C(=O)OC)CC(c2cn(-c3cccc(C(F)(F)F)c3)c3ccccc23)=NO1 (stereo not given) | 10 |

Biological target: T1, Macrophage migration inhibitory factor (Homo sapiens)
Assay: Inhibition of MIF in human PBMC assessed as MIF secretion at 10 uM after 5 hrs by ELISA
Details: not given

| Compound | inhibition [%] |
| --- | --- |
| CC1(C(=O)O)CC(c2ccoc2)=NO1 (stereo not given) | 0 |
| c1cc(C2=NOC(C3CCCCC3)C2)co1 (stereo not given) | 13 |
| OCCC1CC(c2ccoc2)=NO1 (stereo not given) | 39 |
| Fc1ccc(C2CC(c3cn(-c4cccc(C(F)(F)F)c4)c4ccccc34)=NO2)cc1 (stereo not given) | 0 |
| Fc1ccc(C2CC(c3ccoc3)=NO2)cc1 (stereo not given) | 0 |
| COC(=O)CC1(C(=O)OC)CC(c2cn(-c3cccc(C(F)(F)F)c3)c3ccccc23)=NO1 (stereo not given) | 0 |

System: not listed separately
Assay: Cytotoxicity against human PBMC assessed as cell viability measured during MIF secretion assay at 100 uM after 21 hrs by MTS assay
Type: cell-based
Details: PBMC (peripheral blood mononuclear cells)

| Compound | cytotoxicity at 21 h, 100 µM [%] |
| --- | --- |
| CC1(C(=O)O)CC(c2ccoc2)=NO1 (stereo not given) | 2 |
| c1cc(C2=NOC(C3CCCCC3)C2)co1 (stereo not given) | 6 |
| OCCC1CC(c2ccoc2)=NO1 (stereo not given) | 0 |
| Fc1ccc(C2CC(c3cn(-c4cccc(C(F)(F)F)c4)c4ccccc34)=NO2)cc1 (stereo not given) | 0 |
| Fc1ccc(C2CC(c3ccoc3)=NO2)cc1 (stereo not given) | 0 |
| COC(=O)CC1(C(=O)OC)CC(c2cn(-c3cccc(C(F)(F)F)c3)c3ccccc23)=NO1 (stereo not given) | 0 |

System: PBMC
Assay: Antiinflammatory activity in human PBMC assessed as inhibition of MIF-induced IL1-beta production at 100 uM after 21 hrs by ELISA
Type: functional
Details: not given

| Compound | inhibition at 100 µM [%] |
| --- | --- |
| CC1(C(=O)O)CC(c2ccoc2)=NO1 (stereo not given) | 15 |
| c1cc(C2=NOC(C3CCCCC3)C2)co1 (stereo not given) | 15 |
| OCCC1CC(c2ccoc2)=NO1 (stereo not given) | 0 |
| Fc1ccc(C2CC(c3cn(-c4cccc(C(F)(F)F)c4)c4ccccc34)=NO2)cc1 (stereo not given) | 0 |
| Fc1ccc(C2CC(c3ccoc3)=NO2)cc1 (stereo not given) | 47 |
| COC(=O)CC1(C(=O)OC)CC(c2cn(-c3cccc(C(F)(F)F)c3)c3ccccc23)=NO1 (stereo not given) | 23 |
